Assay results taken from US8455491B2, “6-cycloamino-3-(pyridazin-4-yl)imidazo[1,2-b]pyridazine and derivatives and pharmaceutical compositions comprising the same” (Sanofi, priority 2007, dated 2013).

Key:
human CK1 delta = molecular target: T1, human CK1 delta (Homo sapiens, UniProt P48730); test: FRET fluorescence test (Z'Lyte kinase assay Kit), CK1 delta; format: biochemical; conditions: peptide substrate SER/THR 11 2 μM, ATP 4 times the KM
T1 construct: purchased Invitrogen Corporation PV3665
From the text: The capacity of the compounds of the invention to inhibit the phosphorylation of casein by casein kinase 1 epsilon and delta may be evaluated using a FRET (“Fluorescence Resonance Energy Transfer) fluorescence test with the aid of the “Z′Lyte™ kinase assay Kit” (reference PV3670; Invitrogen Corporation™) according to the manufacturer's instructions.
The casein kinases 1 used are obtained from Invitrogen Corporation (human CK1 epsilon PV3500 and human CK1 delta PV3665).
A peptide substrate, labeled at both ends with a fluorophore donor group (coumarin) and a fluorophore acceptor group ([…]) constituting a FRET system is phosphorylated in the presence of ATP by casein kinase 1 epsilon or delta in the presence increasing concentrations of compounds of the invention. The mixture is treated with a site-specific protease that specifically cleaves the peptide substrate to form two fluorescent fragments having a large fluorescence emission ratio.
The fluorescence observed is thus related to the capacity of the products of the invention to inhibit the phosphorylation of the peptide substrate by casein kinase 1 epsilon or casein kinase 1 delta.
The compounds of the invention are dissolved at different concentrations starting with a 10 mM stock solution in DMSO diluted in a buffer containing 50 mM HEPS, pH 7.5, 1 m MEGTA, 0.01% Brij-35, 10 mM MgCl for casein kinase 1 epsilon and supplemented with Trizma Base (50 mM), pH 8.0, and NaN3 (0.01% final) for casein kinase 1 delta.
The phosphorylation of the peptide substrate SER/THR 11 obtained from Invitrogen Corporation™ is performed at a final concentration of 2 μM. The ATP concentration is 4 times the KM, this value being 2 μM for casein kinase 1 epsilon and 4 μM for casein kinase 1 delta.
The emitted fluorescence is measured at wavelengths of 445 and 520 nm (excitation at 400 nm).

[1] = molecular target: T2, casein kinase 1 epsilon (CK1 epsilon) (Homo sapiens, UniProt P49674); test: Filter-plate assay of ATP-33P, inhibition of casein phosphorylation by CK1 epsilon; format: biochemical; conditions: casein substrate, ATP 10 μM, 2 hours at ambient temperature
T2 construct: Invitrogen Corporation (named as alternative)
Method: The capacity of the compounds of the invention to inhibit the phosphorylation of casein by casein kinase 1 epsilon and delta may be evaluated according to the procedure described in US 2005/0131012.
Filter-Plate Assay of ATP-^33P for the Screening of CK1 Epsilon Inhibitors:
The effect of the compounds on inhibition of the phosphorylation of casein by the enzyme casein kinase 1 epsilon (CK1 epsilon) is measured, using a casein assay with filtration of ATP-^33P in vitro.
Casein kinase 1 epsilon (0.58 mg/ml) is obtained via fermentation and purification processes performed according to methods that are well known to those skilled in the art, or may also be obtained from Invitrogen Corporation™ (human CK1 epsilon).
The compounds are tested at five different concentrations so as to generate IC50 values, i.e. the concentration at which a compound is capable of inhibiting the enzymatic activity by 50%, or alternatively the percentage of inhibition at a concentration of 10 micromolar.
“U”-bottomed Falcon plates are prepared by placing 5 μL of solutions of the compounds according to the invention at concentrations of 10, 1, 0.1, 0.01 or 0.001 μM in various wells. The solutions of the compounds according to the invention at these various concentrations are prepared by diluting in a test buffer (50 mM Tris, pH 7.5, […], 2 mM DTT and 1 mM EGTA) a stock solution in DMSO at a concentration of 10 mM. Next, 5 μL of dephosphorylated casein are added to a final concentration of 0.2 μg/μL, 20 μl of CK1 epsilon to a final concentration of 3 ng/μl, and 20 μl of ATP-^33P to a final concentration of 0.02 μCi/μl mixed with cold ATP (10 μM final—approximately 2×10^6 CPM per well). The final total test volume per well is equal to 50 μl.
The “U”-bottomed Falcon® test plate mentioned above is vortexed, and then incubated at ambient temperature for 2 hours. After 2 hours, the reaction is stopped by adding an ice-cold solution of 65 μl of ATP (2 mM) prepared in test buffer.
100 μl of the reaction mixture are then transferred from the “U”-bottomed Falcon® plate into Millipore® MAPH filter plates, preimpregnated with 25 μl of ice-cold 100% TCA. […]
The plates are left to dry overnight at ambient temperature. […] The radiation emitted by each well is then measured for 2 minutes in a Packard® Topcount NXT scintillation counter, in which the values of CPM/well are measured.
The percentage inhibition of the capacity of the enzyme to phosphorylate the substrate (casein) is determined for each concentration of compound tested. These inhibition data expressed as percentages are used to calculate the IC50 value for each compound compared with the controls.
The kinetic studies determined the KM value for ATP as being 21 μM in this test system.

T1 sequence (P48730 whole entry): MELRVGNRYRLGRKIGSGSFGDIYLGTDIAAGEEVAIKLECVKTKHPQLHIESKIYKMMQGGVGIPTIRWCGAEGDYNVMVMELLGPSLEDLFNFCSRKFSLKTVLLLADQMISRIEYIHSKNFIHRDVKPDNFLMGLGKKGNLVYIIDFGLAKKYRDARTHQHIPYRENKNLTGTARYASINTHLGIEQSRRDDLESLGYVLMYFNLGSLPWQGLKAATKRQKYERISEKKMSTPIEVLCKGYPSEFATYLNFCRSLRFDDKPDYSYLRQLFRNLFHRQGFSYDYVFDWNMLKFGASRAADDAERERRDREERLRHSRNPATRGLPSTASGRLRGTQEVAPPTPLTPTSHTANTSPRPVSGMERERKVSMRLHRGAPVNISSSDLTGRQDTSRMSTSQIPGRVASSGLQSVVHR
T2 sequence (P49674 whole entry): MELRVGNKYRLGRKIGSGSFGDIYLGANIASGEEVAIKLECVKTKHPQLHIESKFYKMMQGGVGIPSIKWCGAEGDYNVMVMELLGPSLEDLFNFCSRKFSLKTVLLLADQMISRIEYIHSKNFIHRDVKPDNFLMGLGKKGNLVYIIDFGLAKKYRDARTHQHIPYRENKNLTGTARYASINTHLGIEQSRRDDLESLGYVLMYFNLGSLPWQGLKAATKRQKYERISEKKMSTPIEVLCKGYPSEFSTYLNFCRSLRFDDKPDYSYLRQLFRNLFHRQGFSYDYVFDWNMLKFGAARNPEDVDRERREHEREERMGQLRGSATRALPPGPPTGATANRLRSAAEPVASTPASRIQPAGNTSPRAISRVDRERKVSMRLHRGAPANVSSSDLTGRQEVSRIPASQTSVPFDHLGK

melting point: 232 to 233 °C
IC50 (human CK1 delta): 0.041 to 0.056 µM
IC50 [1]: 0.016 to 0.033 µM
Structure (SMILES): CN1CCN(c2ccc3nc(-c4ccc(F)cc4)c(-c4ccnnc4)n3n2)CC1 [compound 5, 2-(4-fluorophenyl)-6-(4-methylpiperazin-1-yl)-3-pyridazin-4-yl-imidazo[1,2-b]pyridazine]
